Calls of active or inactive are those of the source.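 How the source made its calls: active means IC50 at or below 10 µM; inactive means IC50 above 10 µM.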
Molecular target: GAL4 DBD-VP16 fusion transactivation (Human herpesvirus 1 VP16)
Test: nonselective repression of VP16-driven luciferase – cell-based, luminescence, dose response, powder samples, counter-screen for SRC3 inhibitor project, late-stage follow-up (AID 651781)
Settings: HEK293 GAL4-VP16 UAS luciferase reporter

Q: How did the IC50 turn out when `O=C(Nc1ccccc1Oc1ccccc1)c1cc([N+](=O)[O-])ccc1Cl` was run?
A: inactive

Q: Which IC50 does the source give for `CC(C)(C)c1ccc(-c2noc(CCC(=O)Nc3cccnc3)n2)cc1` here?
A: 9.65 µM

Q: How did the IC50 turn out when `Cc1ccc(OCC(=O)c2cc(C)n(-c3ccccc3)c2C)c([N+](=O)[O-])n1` was run?
A: inactive

Q: For `O=C(COC(=O)c1ccc[nH]c1=O)Nc1ccc(N2CCCCC2)cc1`, which IC50 is on record?
A: > 35.9 µM (inactive)

Q: With `CCCNC(=O)c1nnsc1S(=O)(=O)c1ccc(Cl)cc1` as the compound, how does the IC50 read?
A: 6.04 µM

Q: For `CN1C(=O)C2(C(C#N)=C(N)N(c3cc(Cl)cc(Cl)c3)C3=C2C(=O)CC(C)(C)C3)c2ccccc21` (stereo not drawn), which IC50 is on record?
A: inactive

Q: Which IC50 does the source give for `OCCN1CCN(C(=S)c2ccc(-c3ccccc3)cc2)CC1` here?
A: inactive

Q: For `CN1C(=O)C2(C(C#N)=C(N)N(c3cc(Cl)cc(Cl)c3)C3=C2C(=O)CCC3)c2ccccc21` (stereo not drawn), which IC50 is on record?
A: inactive
